Data reported in US10155743B2, “Glutarimide derivatives, use thereof, pharmaceutical composition based thereon and methods for producing glutarimide derivatives” (OBSCHESTVO S OGRANICHENNOI OTVETSTVENNOSTIYU …, priority 2013, dated 2018).
Like-named read-outs stand apart in the source and are kept apart here.

Assays:
[1] = tested on: mucous membrane of nasal passages, formalin-induced acute rhinosinusitis; experiment: Acute rhinosinusitis rat model (induced by intranasal 7.5% formalin solution); format: in vivo, Wistar rats; details: rats; for Macroscopic changes in the mucous membrane of nasal passages: Muculent or mucopurulent catarrh (number of animals) / Macroscopic changes in the mucous membrane of nasal passages: Without changes (number of animals): count out of n of the group; for The number of caliciform cells within 1 mm of the mucous membrane of the nasal septum: M ± m
Experimental: Morphological studies of histologic preparations were conducted with a Leica DMLS light-optical microscope (Leica Microsystems, Germany). Micro-morphometric assessment was performed by using an ocular micrometer on a Leica DMLB microscope.
Acute rhinosinusitis was induced by intranasal administration of 20 μl of 7.5% formalin solution (aqueous solution comprising 40% formaldehyde, 8% methyl alcohol, and 52% water) to each nasal passage of rats.
Administration of formalin to rat nasal passages leads to the dissemination of inflammation to adjacent tissues, resulting in a clinical pattern similar to the symptoms of rhinosinusitis in a human.
After an acclimatization period, the following groups were formed: • intact animals administered intragastrically a saline solution in an amount of 0.2 ml, the induction of acute rhinosinusitis was not performed; • a control group consisted of the animals administered intragastrically a saline solution in an amount of 0.2 ml for 7 days after induction of acute rhinosinusitis; • animals administered intramuscularly dexamethasone at a dose of 0.33 mg/kg for 7 days after induction of acute rhinosinusitis; and • animals administered the tested compounds at a dose of 27 mg/kg for 7 days after induction of acute rhinosinusitis.
Clinical observation of each animal was performed every day at least twice daily.
In the experiment with Wistar rats, the induction of acute rhinosinusitis by administration of a 7.5% formalin solution to nasal passages caused in the control group of animals pronounced pathological changes characterizing the development of an acute inflammation process in the nasal mucous. The caused pathology was characterized by congestion, hyperplasia, focal necrosis of the nasal meatus mucous membrane, an increased number of caliciform cells, pronounced infiltration by mononuclear cells and leucocytes, and mucus hyperproduction by submucosal glands.
The mucous and submucous membranes of both nasal passages (respiratory and olfactory regions) of the experimental animals were subjected to a morphological analysis to evaluate a specific activity of the compounds.
For microscopic examination, the sections were stained with hematoxylin and eosin. Detection of acid mukopolysaccharides, the production of which is increased in an inflammation, was performed by histochemical staining of the preparation with Alcian Blue (pH 2.5). The comparison and histological evaluation of changes were performed versus the group of intact rats.
After slaughter, the gross appearance of inflammation in the nasal passages was studied in each animal. Histological, hystochemical and morphological studies of rats were intended to evaluate the following characteristics of nasal passages: congestion of the mucous membrane; hyperplasia and necrosis of nasal epithelium, the number of caliciform cells within 1 mm of the mucous membrane of the nasal septum, and the character of inflammation.
In this study, the efficiency of the mucociliary system was evaluated by the number of caliciform cells and, as a consequence, microscopic changes in the mucous membrane of the nasal passages.

[2] = tested on: Coxsackie A2-virus (strain HCXV A2); experiment: Antiviral activity against Coxsackie virus in vivo (mortality of infected mice); parameters: species or system white mice; details: for inhibition in vivo at 30 mg/kg / mortality at 30 mg/kg: Mus musculus, po; for inhibition in vivo at 30 mg/kg: 168 h, read-out: Protective index (%); for mortality at 30 mg/kg: 360 h, read-out: Total mortality rate, %; for Average expectancy life (days), Vs. control: difference to virus control
[3] = tested on: influenza virus strain A/California/07/09 (H1N1) pdm09; experiment: animal or person; format: in vivo, white outbred female mice; details: unidentified influenza virus, H1N1, in Mus musculus, po, 336 h, read-out: Mortality rate, %
[4] = tested on: hRV strain (GKV reg. No. 2730); experiment: Antiviral activity against rhinovirus in mice (body weight, lung weight, infectious titer in lungs); format: in vivo; details: Ribavirin 40 mg/kg
[5] = tested compounds 27 mg/kg for 7 days
[6] = mice, 10LD50 HCXV A2, 30 mg/kg orally once daily for 7 days
[7] = mice, 10LD50 HCXV A2 i.m., 30 mg/kg orally once daily for 7 days from 24 h after infection, 15 days monitoring
[8] = tested compounds 27 mg/kg for 7 days after induction
[9] = dexamethasone 0.33 mg/kg intramuscularly for 7 days

SMILES | Macroscopic changes in the mucous membrane of nasal passages: Muculent or mucopurulent catarrh (number of animals) [1, 5] | Macroscopic changes in the mucous membrane of nasal passages: Without changes (number of animals) [1, 5] | inhibition in vivo at 30 mg/kg [2, 6] [%] | mortality at 30 mg/kg [2, 7] [%] | Average expectancy life (days), Relative [2, 6] [days] | Average expectancy life (days), Vs. control [2, 6] | other results
CC1CC(=O)N(CCc2cnc[nH]2)C(=O)C1 [Compound 2] | 3 | 5 | 40 | 42.9 | 22.4 | +9.5 days | –
O=C1CCCC(=O)N1CCc1nc2ccccc2s1 [Compound 7, 1-[2-(1H-benzothiazol-2-yl)ethyl]piperidine-2-dione] | 13 | 5 | – | – | – | – | –
O=C1CCCC(=O)N1CCc1ncc[nH]1 [Compound 8] | 3 | 3 | – | – | – | – | The number of caliciform cells within 1 mm of the mucous membrane of the nasal septum [1, 8]: 34.5 ± 0.8
O=C1CCCC(=O)N1CCc1ccsc1 [Compound 12] | – | – | 45 | 40 | 24.9 | +14.2 days | mortality at 30 mg/kg [3]: 60%
O=C1CCCC(=O)N1CCc1ccccn1 [Compound 13] | – | – | 36 | 46.7 | 19.0 | +8.3 days | –
O=C1CCCC(=O)N1CCN1CCCCC1 [Compound 14] | – | – | – | – | 21.4 | +10.4 days | inhibition in vivo at 30 mg/kg [2]: 36%; mortality at 30 mg/kg [2]: 50%
COC(=O)C(Cc1c[nH]c2ccccc12)N1C(=O)CCCC1=O (stereo not shown) [Compound 21] | 5 | 3 | – | – | – | – | –
O=C1CCCC(=O)N1CCCn1ccnc1 [Compound 24] | – | – | – | – | – | – | mortality at 30 mg/kg [3]: 55%
CCOC(=O)C(Cc1c[nH]c2ccccc12)N1C(=O)CCCC1=O (stereo not shown) [Compound 27] | 4 | 4 | – | – | – | – | –
O=C1CC(O)CC(=O)N1CCc1cnc[nH]1 [Compound 28] | 4 | 4 | – | – | – | – | –
O=C1CCC(O)C(=O)N1CCc1cnc[nH]1 (stereo not shown) [Compound 29] | – | – | 50 | 35.7 | 26.7 | +13.7 days | –
CC(Cc1cnc[nH]1)N1C(=O)CCCC1=O (stereo not shown) [Compound 32] | 5 | 3 | 33 | 42.9 | 22.2 | +10.0 days | –
O=C1CCCC(=O)N1CCCc1c[nH]cn1 [Compound 33] | 5 | 3 | – | – | – | – | –
O=C(O)C(Cc1ccoc1)N1C(=O)CCCC1=O (stereo not shown) [Compound 44] | 4 | 4 | 55 | 28.6 | 32.3 | +20.1 days | –
CC1CCC(=O)N(CCc2c[nH]cn2)C1=O (stereo not shown) [Compound 56] | 3 | 5 | – | – | – | – | –
NC1CC(=O)N(CCc2c[nH]cn2)C(=O)C1 [Compound 65] | 4 | 4 | – | – | – | – | –
NC1CCC(=O)N(CCc2cnc[nH]2)C1=O (stereo not shown) [Compound 67] | – | – | 50 | 35.7 | 27.0 | +16.2 days | –
CC1CCC(=O)N(C(Cc2cnc[nH]2)C(=O)O)C1=O (stereo not shown) [Compound 70] | 4 | 4 | – | – | – | – | –
CC1CC(=O)N(C(Cc2cnc[nH]2)C(=O)O)C(=O)C1 (stereo not shown) [Compound 71] | – | – | 44 | 35.7 | 28.6 | +16.4 days | –
NC1CCC(=O)N(C(Cc2c[nH]cn2)C(=O)O)C1=O (stereo not shown) [Compound 75] | 5 | 3 | 50 | 35.7 | 27.3 | +14.3 days | –
O=C(O)C(Cc1cnc[nH]1)N1C(=O)CCC(O)C1=O (stereo not shown) [Compound 76] | 6 | 2 | – | – | – | – | –
O=C(O)C(Cc1ccccn1)N1C(=O)CCCC1=O (stereo not shown) [Compound 83] | – | – | – | – | – | – | mortality at 30 mg/kg [3]: 45%
O=C1CCCC(=O)N1CCC1CNCCO1 (stereo not shown) [Compound 89] | – | – | 27 | 53.3 | 17.7 | +7.0 days | –
O=C1CCCC(=O)N1CCC1COCCN1 (stereo not shown) [Compound 90] | – | – | 50 | 35.7 | 25.9 | +15.1 days | –
O=C1CCCC(=O)N1CCc1nc2ccccc2[nH]1 [Compound 124] | 8 | 4 | – | – | – | – | The number of caliciform cells within 1 mm of the mucous membrane of the nasal septum [1, 8]: 37.6 ± 1.4
C[C@@H]1C[C@H]2[C@@H]3CCC4=CC(=O)C=C[C@]4(C)[C@@]3(F)[C@@H](O)C[C@]2(C)[C@@]1(O)C(=O)CO [Dexamethasone, dexamethasone, reference compound] | – | – | – | – | – | – | The number of caliciform cells within 1 mm of the mucous membrane of the nasal septum ([1]; dexamethasone 0.33 mg/kg intramuscularly for 7 days after induction): 34.8 ± 2.1; Macroscopic changes in the mucous membrane of nasal passages: Muculent or mucopurulent catarrh (number of animals) [1, 9]: 3; Macroscopic changes in the mucous membrane of nasal passages: Without changes (number of animals) [1, 9]: 3
NC(=O)c1ncn([C@@H]2O[C@H](CO)[C@@H](O)[C@H]2O)n1 [Ribavirin, reference compound] | – | – | – | – | – | – | Suppression of the reproduction of the virus in mouse lungs, Δ lg, Day 2 after infection [4]: 0.88 ± 0.5 Δ lg; Suppression of the reproduction of the virus in mouse lungs, Δ lg, Day 3 after infection [4]: 2.18 ± 0.26 Δ lg; Suppression of the reproduction of the virus in mouse lungs, Δ lg, Day 4 after infection [4]: 2 ± 0.16 Δ lg; Infectious titer of the virus in lungs, lg TCID50, Day 2 after infection ([4]; Hela cell culture): 3.13 ± 0.5 lg TCID50; Infectious titer of the virus in lungs, lg TCID50, Day 3 after infection ([4]; Hela cell culture): 0.33 ± 0.26 lg TCID50; Infectious titer of the virus in lungs, lg TCID50, Day 4 after infection ([4]; Hela cell culture): 0.2 ± 0.16 lg TCID50; Body weight of the mice after infection with hRV, day 0 ([4]; day 0): 7.66 ± 0.89; Body weight of the mice after infection with hRV, day 1 ([4]; day 1 after infection): 8.81 ± 5.94; Body weight of the mice after infection with hRV, day 2 ([4]; day 2 after infection): 13.87 ± 5.11; Lung weight of the mice after infection with hRV, day 2 ([4]; day 2 after infection): 152.6 ± 4.55; Body weight of the mice after infection with hRV, day 3 ([4]; day 3 after infection): 13.11 ± 1.37; Lung weight of the mice after infection with hRV, day 3 ([4]; day 3 after infection): 130.1 ± 5.4; Body weight of the mice after infection with hRV, day 4 ([4]; day 4 after infection): 13.37 ± 1.22; Lung weight of the mice after infection with hRV, day 4 ([4]; day 4 after infection): 120.5 ± 3.37
